PMC10584170, “Machine learning-based phenotypic imaging to characterise the targetable biology of Plasmodium falciparum male gametocytes for the development of transmission-blocking antimalarials” (PLOS Pathogens, 2023)
Where two headings read alike, the source gives them in different places.

Assays:
[1] = tested on: P. falciparum male gametocytes; experiment: P. falciparum Dual Gamete Formation Assay (PfDGFA), male readout (exflagellation); type: cell-based, Plasmodium falciparum NF54
Outline: (§1)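 Day-14 NF54 gametocytes were incubated with compound for 24 h at 37°C under 1% O2/3% CO2/96% N2. Gametogenesis was triggered with ookinete medium (0.1 μM xanthurenic acid) plus Cy3-anti-Pfs25, and exflagellation was imaged by brightfield after cooling to 4°C then 28°C. Females were imaged by Pfs25 fluorescence 24 h later at 28°C.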

[2] = tested on: P. falciparum female gametocytes; experiment: P. falciparum Dual Gamete Formation Assay (PfDGFA), female readout (Pfs25-positive female gametes); type: cell-based, Plasmodium falciparum NF54
Outline: as §1

[3] = PfDGFA at 2µM, 24h preincubation with gametocytes prior to induction of gametogenesis, replicate R1
[4] = PfDGFA at 2µM, 24h preincubation with gametocytes prior to induction of gametogenesis, replicate R3
[5] = PfDGFA at 2µM, 24h preincubation with gametocytes prior to induction of gametogenesis, replicate R4
[6] = PfDGFA at 2µM, 24h preincubation, average of replicates
[7] = 2µM, 24h preincubation with gametocytes prior to induction of gametogenesis, average of replicates
[8] = 2µM, 24h preincubation with gametocytes prior to induction of gametogenesis, replicate R1
[9] = 2µM, 24h preincubation with gametocytes prior to induction of gametogenesis, replicate R3
[10] = 2µM, 24h preincubation with gametocytes prior to induction of gametogenesis, replicate R4
[11] = 2µM, 24h preincubation, number of replicates with >50% inhibition in the male readout
[12] = 2µM, 24h preincubation, number of replicates with >50% inhibition in the female readout
[13] = PfDGFA at 2µM, 24h preincubation with gametocytes, average of replicates
[14] = PfDGFA at 2µM, 24h preincubation with gametocytes, replicate R1
[15] = PfDGFA at 2µM, 24h preincubation with gametocytes, replicate R3
[16] = PfDGFA at 2µM, 24h preincubation with gametocytes, replicate R4

SMILES | Average inhibition male (%) [1, 7] [%] | % inhibition male (individual replicates) R1 [1, 8] [%] | % inhibition male (individual replicates) R3 [1, 9] [%] | % inhibition male (individual replicates) R4 [1, 10] [%] | HitlevelM [1, 11] | Average inhibition female (%) [2, 7] [%] | % inhibition female (individual replicates) R1 [2, 8] [%] | % inhibition female (individual replicates) R3 [2, 9] [%] | % inhibition female (individual replicates) R4 [2, 10] [%] | HitlevelF [2, 12] | other results
CS(=O)(=O)CCNCc1ccc(-c2ccc3c(Nc4ccc(Cl)cc4F)ccnc3c2)o1 [TCMDC-138445] | – | – | – | – | – | – | – | – | – | – | % inhibition male (individual replicates) R1 [1, 3]: -15.4%; % inhibition male (individual replicates) R3 [1, 4]: 14.3%; % inhibition male (individual replicates) R4 [1, 5]: -10.6%; Average inhibition male (%) [1, 6]: -2.9%; % inhibition female (individual replicates) R1 [2, 3]: 4.7%; % inhibition female (individual replicates) R3 [2, 4]: -15.0%; % inhibition female (individual replicates) R4 [2, 5]: 12.7%; Average inhibition female (%) [2, 6]: -1.7%
CN(C)CCN(C)Cc1ccc(-c2ccc3c(Nc4ccc(F)cc4Cl)ccnc3c2)o1 [TCMDC-138447] | 33.6 | 23.0 | -2.6 | 53.6 | 2 | 19.6 | 22.4 | -11.7 | 48.1 | 0 | –
c1ccc(Oc2ccc(Nc3ccnc4cc(-c5cccc(CNCCN6CCOCC6)c5)ccc34)cc2)cc1 [TCMDC-138474] | 19.3 | 25.4 | -12.1 | 25.6 | 0 | 29.1 | 38.4 | 13.4 | 18.2 | 0 | –
CN1CCN(Cc2cccc(-c3ccc4c(Nc5ccc(Oc6ccccc6)cc5)ccnc4c3)c2)CC1 [TCMDC-138476] | -8.7 | -12.6 | -7.4 | -11.7 | 0 | 18.5 | 35.6 | -5.5 | 24.1 | 0 | –
O=C(Cc1cccc(O)c1)NCC(Cc1ccc(O)cc1)c1ccccc1 (stereo not shown) [TCMDC-138482] | – | – | – | – | – | – | – | – | – | – | Selectivity Ratio M ([1]; HepG2 Tox50 versus male IC50): 58.17; inhibition at 2 µM ([1]; Plasmodium falciparum, 2µM, 24h preincubation with gametocytes, average of replicates, read-out: Average inhibition male (%)): 97.3%; inhibition at 2 µM ([1]; Plasmodium falciparum, 2µM, 24h preincubation with gametocytes, replicate R1, read-out: % inhibition male (individual replicates) R1): 97.5%; inhibition at 2 µM ([1]; Plasmodium falciparum, 2µM, 24h preincubation with gametocytes, replicate R2, read-out: % inhibition male (individual replicates) R2): 95.7%; inhibition at 2 µM ([1]; Plasmodium falciparum, 2µM, 24h preincubation with gametocytes, replicate R3, read-out: % inhibition male (individual replicates) R3): 95.7%; inhibition at 2 µM ([1]; Plasmodium falciparum, 2µM, 24h preincubation with gametocytes, replicate R4, read-out: % inhibition male (individual replicates) R4): 100%; IC50 ([1]; Plasmodium falciparum, PfDGFA, 24 h incubation with gametocytes before induction, exflagellation readout, read-out: Male IC50): 1720 nM; Selectivity ratio F ([2]; HepG2 Tox50 versus female IC50): 10; inhibition at 2 µM ([2]; Plasmodium falciparum, 2µM, 24h preincubation with gametocytes, average of replicates, read-out: Average inhibition female (%)): 28.1%; inhibition at 2 µM ([2]; Plasmodium falciparum, 2µM, 24h preincubation with gametocytes, replicate R1, read-out: % inhibition female (individual replicates) R1): 32.7%; inhibition at 2 µM ([2]; Plasmodium falciparum, 2µM, 24h preincubation with gametocytes, replicate R2, read-out: % inhibition female (individual replicates) R2): 38.2%; inhibition at 2 µM ([2]; Plasmodium falciparum, 2µM, 24h preincubation with gametocytes, replicate R3, read-out: % inhibition female (individual replicates) R3): 28.5%; inhibition at 2 µM ([2]; Plasmodium falciparum, 2µM, 24h preincubation with gametocytes, replicate R4, read-out: % inhibition female (individual replicates) R4): 13.2%; IC50 ([2]; Plasmodium falciparum, PfDGFA, 24 h incubation with gametocytes before induction, female gamete readout, read-out: Female IC50): > 10000 nM
COc1cc2nc(N3CCC(CCCC4CCNCC4)CC3)nc(NCc3ccccn3)c2cc1OC.O=C(O)C(F)(F)F [TCMDC-138494] | – | – | – | – | – | – | – | – | – | – | Average inhibition male (%) [1, 13]: 68.1%; % inhibition male (individual replicates) R1 [1, 14]: 83.7%; % inhibition male (individual replicates) R3 [1, 15]: 75.6%; % inhibition male (individual replicates) R4 [1, 16]: 100.2%; HitlevelM ([1]; number of replicates with >50% inhibition in the male readout, 2µM): 3; Average inhibition female (%) [2, 13]: 59.5%; % inhibition female (individual replicates) R1 [2, 14]: 47.2%; % inhibition female (individual replicates) R3 [2, 15]: 73.7%; % inhibition female (individual replicates) R4 [2, 16]: 83.6%; HitlevelF ([2]; number of replicates with >50% inhibition in the female readout, 2µM): 2
COc1ccc(Cn2c(Nc3cccc(C(F)(F)F)c3)nc3ccc(C(=O)NCCN4CCCC4)cc32)cc1Cl [TCMDC-138531] | -2.0 | 6.1 | 3.4 | -8.5 | – | 9.2 | 9.3 | -11.0 | 18.4 | – | HitlevelM ([1]; 2µM, 24h preincubation, hits selected on >50% inhibition in the male readout across replicates): 0; Activity ([1]; PfDGFA at 2µM, 24h preincubation, hit = >50% inhibition in male or female readout in at least 3 replicates, 0 = no class assigned): 0; HitlevelF ([2]; 2µM, 24h preincubation, hits selected on >50% inhibition in the female readout across replicates): 0
